# Test results published in paper PMC12040169 (PLOS Biology, 2025).
# Experiment: in vitro
# Details: human, hela cells, % viability
row,Structure (SMILES),"viability at 28.5 h, 10 µM"
1,CCc1nc(NC(=O)c2ccnc(Cl)c2)sc1C [CBK298287],101%
2,CN(c1ccccc1C(N)=O)S(=O)(=O)c1ccc(S(=O)(=O)C(F)F)cc1 [CBK298289],88.3%
3,CCCCCNC(=O)C1CCN(Cn2c(=O)oc3cc(Cl)ccc32)CC1 [CBK298290],86.3%
4,CC(CNC(=O)Cc1ccc(C(F)(F)F)cc1[N+](=O)[O-])N1CCc2ccccc2C1 (stereo not drawn) [CBK298292],88.8%
5,Cn1c(SCC(=O)N2CCN(c3ccccc3)CC2)nc2cc(Cl)ccc21 [CBK298295],99.7%
6,O=C(C(OCC(F)(F)F)c1ccccc1)N1CCN(c2nccs2)CC1 (stereo not drawn) [CBK298299],91.9%
7,O=C(c1cccc(C(F)(F)F)c1)N1CCN(C(=O)c2ccc3c(c2)CCC3)CC1 [CBK298300],91.5%
8,O=C(NCC1Cc2ccccc2O1)c1cccc(NC(=O)c2ccco2)c1 (stereo not drawn) [CBK298302],83.3%
9,CC(=O)N1CCc2cc(C(=O)N[C@@H](Cc3ccccc3)C(=O)O)ccc21 [CBK298303],102%
10,Cc1cc(Cc2cnc(NC(=O)c3ccncc3)s2)ccc1Br [CBK298304],106%
11,Cc1cc2nnc(SC(C)c3nc(-c4ccccc4)no3)n2c(C)n1 (stereo not drawn) [CBK298306],91.7%
12,Cc1cc(C)cc(C(=O)N2CCCC(C(=O)N3CCN(c4nccs4)CC3)C2)c1 (stereo not drawn) [CBK298307],95.1%
13,Cc1nnc(C(C)Sc2nnc(N3CCC(C)CC3)n2Cc2ccco2)o1 (stereo not drawn) [CBK298311],96.6%
14,O=C(c1nc(=O)[nH][nH]1)N1CCN(Cc2ccc(C(F)(F)F)cc2)CC1 [CBK298312],95.5%
15,CC(=O)NC(CC(=O)NCc1cccnc1-n1cncn1)c1ccc(Cl)cc1 (stereo not drawn) [CBK298314],101%
16,Cc1ccn2c(=O)c(C(=O)NCc3cccnc3N3CCOCC3)cnc2c1 [CBK298316],86.1%
17,CC(=O)Nc1cccc(-n2nnnc2SCCCc2nc3ccccc3o2)c1 [CBK298317],85.5%
18,COc1ccccc1CC(=O)NCCC(=O)N1CCN(c2ccc(F)cc2)CC1 [CBK298318],87.6%
19,O=C(NCC1Cc2ccccc2O1)c1ccc(Br)cc1Cl (stereo not drawn) [CBK298323],86.9%
20,CC(SCc1ccccc1)C(=O)NCc1ccnc(OCC(F)(F)F)c1 (stereo not drawn) [CBK298325],111%
21,CSc1ccc(CN(C)c2cncc(-n3cccn3)n2)cc1 [CBK298326],91.2%
22,Cc1ccc(C(=O)NCCC(=O)Nc2ccccn2)cc1NC(=O)c1ccco1 [CBK298328],92.2%

row,Structure (SMILES),"viability at 28.5 h, 10 µM"
1,Cc1ccccc1-n1c(C)cc(C(=O)CSc2nncn2C)c1C [CBK298330],91.9%
2,COc1cc(CNC(=O)C(C)SCc2ccccc2)ccn1 (stereo not drawn) [CBK298331],90.8%
3,Nc1nccnc1C(=O)N1CCN(C(=O)Cc2c[nH]c3ccccc23)CC1 [CBK298339],88.1%
4,COc1ccc(S(=O)(=O)Nc2ccc(C(=O)O)c(O)c2)cc1[N+](=O)[O-] [CBK299771],95.7%
5,O=C(O)c1ccc(NS(=O)(=O)c2ccc(Br)c3ccccc23)cc1O [CBK299772],86.5%
6,O=C(O)CSc1nc2ccc(NC(=O)COc3ccc(Cl)cc3)cc2s1 [CBK299773],84.6%
7,O=C(Nc1ccccc1C(=O)O)c1cccc(NC(=O)c2ccco2)c1 [CBK299774],88.1%
8,Cc1cccnc1NS(=O)(=O)c1cccs1 [CBK299775],80.6%
9,CC(C)c1ccc(/C=C2\CCCc3c2nc2ccccc2c3C(=O)O)cc1 [CBK299777],91.2%
10,CC(=O)c1c(C)oc2c1cc(NS(=O)(=O)c1ccc(C(=O)O)cc1)c1ccccc12 [CBK299780],92%
11,CCOc1cc(C(=O)O)ccc1OCCOc1cccc(C)c1 [CBK299781],91.6%
12,COc1cc(C)c(S(=O)(=O)Nc2ccc(CC(=O)O)cc2)cc1C [CBK299782],101%
13,O=C(O)C1CC=CCC1C(=O)Nc1ccc(CN2CCOCC2)cc1 (stereo not drawn) [CBK299786],107%
14,CC(C)(CC(=O)O)CC(=O)Nc1ccc(N2CCCC2=O)cc1 [CBK299787],109%
15,O=C(O)CCc1ccc(NS(=O)(=O)c2ccc(N3CCCC3=O)cc2)cc1 [CBK299788],116%
16,CC(=O)c1c(C)oc2ccc(N(C(C)=O)S(=O)(=O)c3ccc(C(=O)O)cc3)cc12 [CBK299790],106%
17,O=C(O)CSc1nc2ccc(NC(=O)c3ccccc3Cl)cc2s1 [CBK299791],110%
18,CCCCCOc1ccc(NS(=O)(=O)c2cccc(C(=O)O)c2)cc1 [CBK299795],103%
19,O=C(O)c1ccc(OCCNS(=O)(=O)c2ccc3oc4ccccc4c3c2)cc1 [CBK299797],90.8%
20,CN1C(=O)c2cccc3c(S(=O)(=O)Nc4ccc(C(=O)O)c(O)c4)ccc1c23 [CBK299799],109%
21,CC(C)COc1ccc(-c2nonc2NC(=O)c2ccco2)cc1 [CBK299802],99.1%
22,O=C(O)CCCC(=O)NC(Cc1ccccc1)C(=O)Nc1ccc([N+](=O)[O-])cc1 (stereo not drawn) [CBK299806],84.5%

row,Structure (SMILES),"viability at 28.5 h, 10 µM"
1,O=C(O)c1ccc(OCCNS(=O)(=O)c2ccc3ccccc3c2)cc1 [CBK299807],83.5%
2,COc1cccc(C(=O)Nc2nc3ccccc3n2Cc2ccccc2)c1OC [CBK299811],91.4%
3,O=C(O)c1ccccc1C(=O)Nc1cccc(-c2noc(-c3cccc(F)c3)n2)c1 [CBK299813],92%
4,CC(=O)Nc1ccc(NC(=O)CC2(CC(=O)O)CCCCC2)cc1 [CBK299816],102%
5,O=C(O)c1c(-c2ccccc2)oc2ccc(NS(=O)(=O)c3ccc(F)cc3)cc12 [CBK299817],89.9%
6,CC(C)c1ccc(S(=O)(=O)Nc2ccc(C(=O)O)c(O)c2)cc1 [CBK299819],104%
7,Cn1c(=O)n(C)c2cc(S(=O)(=O)NCCOc3ccc(C(=O)O)cc3)ccc21 [CBK299824],94.9%
8,COc1cc(S(=O)(=O)NCCOc2ccc(C(=O)O)cc2)c(OC)cc1Cl [CBK299825],92.1%
9,CCc1ccc(S(=O)(=O)Nc2ccc(O)c(C(=O)O)c2)cc1 [CBK299827],90.7%
10,O=C(O)CCC(=O)Nc1nc(-c2ccc(Cl)cc2)cs1 [CBK299829],86.8%
11,COc1ccc(CNC(=O)C2CCCN(S(C)(=O)=O)C2)cc1OC (stereo not drawn) [CBK299830],90.2%
12,CCOc1ccc(-c2nc(-c3cccc(NC(=O)c4ccccc4C(=O)O)c3)no2)cc1 [CBK299832],85.2%
13,O=C(CSCc1ccc(C(=O)O)cc1)Nc1ccc2ccccc2c1 [CBK299833],76.1%
14,CN(CCCC(=O)O)c1nc(-c2ccc(Br)cc2)cs1 [CBK299834],88.6%
15,Cc1noc(C)c1Cc1ccc(C(=O)Nc2nc3ccccc3n2C)o1 [CBK299839],85.6%
16,O=C(O)CCCC(=O)Nc1ccccc1C(=O)NCc1ccco1 [CBK299840],85.8%
17,CCn1c2ccccc2c2cc(NC(=O)CC(C)CC(=O)O)ccc21 (stereo not drawn) [CBK300031],103%
18,Cc1ccc2nc(-c3ccc(-c4ccc(C(C)C)cc4)o3)cc(C(=O)O)c2c1 [CBK300083],96.7%
19,O=C(O)CCC(=O)Nc1cccc(NC(=O)c2ccc(Br)cc2)c1 [CBK300180],84.6%
20,Cn1c(SCC(=O)Nc2cccc(C(=O)O)c2)nnc1-c1ccccc1 [CBK300479],96.1%
21,O=C(O)CCNC(=O)/C(=C/c1ccc(Cl)cc1)NC(=O)c1ccccc1 [CBK300484],86.5%
22,O=C(Nc1cc(Oc2cccnc2)cc([N+](=O)[O-])c1)c1sc2ccccc2c1Cl [CBK300485],106%

row,Structure (SMILES),"viability at 28.5 h, 10 µM"
1,O=C(Nc1nnc(COc2ccccc2)s1)c1cccc2ccccc12 [CBK300487],97.6%
2,Cn1c(=O)oc2ccc(C(=O)CSc3nnnn3-c3ccccc3)cc21 [CBK300488],90.1%
3,CCCCOc1ccc(C(=O)N/C(=C/c2ccc(OC)cc2)C(=O)O)cc1 [CBK300490],87.5%
4,O=C(O)CCCC(=O)Nc1ccc(Cc2ccncc2)cc1 [CBK300493],93.1%
5,CCCc1ccc(-c2cc(C(=O)NCc3cccnc3)c3ccccc3n2)cc1 [CBK300494],92.6%
6,O=C(CCSc1nnnn1-c1ccc(C(=O)O)cc1)Nc1ccc(F)cc1 [CBK300497],88.4%
7,O=C(CC1SC(N2CCOCC2)=NC1=O)Nc1cccc(C(=O)O)c1 (stereo not drawn) [CBK300498],101%
8,Cc1cccnc1NC(=O)c1cc(O)nc2ccccc12 [CBK300499],91.6%
9,CCCCNC(=O)c1c(N)n(-c2ccc(C(=O)O)cc2)c2nc3ccccc3nc12 [CBK300500],82.7%
10,CC(C)c1ccc(Cc2cnc(NC(=O)c3cc(Br)cs3)s2)cc1 [CBK300503],88.7%
11,Cn1c(COc2cccc3cccnc23)nnc1SCC(=O)O [CBK300505],89.4%
12,COc1ccc(-c2nnc(SCCC(=O)O)[nH]2)cc1 [CBK300506],93.4%
13,CS(=O)(=O)c1ccc(NC(=S)N2CCN(c3ccc(F)cc3)CC2)cc1 [CBK300507],95.3%
14,O=C(O)CSc1nnc(-c2ccc(S(=O)(=O)N3CCCCCC3)cc2)o1 [CBK300508],81.9%
15,COc1ccc(C(=O)c2c(N)c(C(=O)Nc3ccccc3)c3ccccn23)cc1 [CBK300509],92.6%
16,COc1ccc(CCNC(=O)NS(=O)(=O)c2ccc(C)cc2)cc1OC [CBK300510],88%
17,COc1cccc(N2CCN(c3cc4n[nH]c(=O)n4cn3)CC2)c1 [CBK300511],87.1%
18,Cc1cc(C)c2c(n1)sc1c(N3CCC(C(=O)O)CC3)ncnc12 [CBK300512],83.1%
19,Cc1ccc(-c2ccc(N3CCCC(C(=O)O)C3)nn2)cc1C (stereo not drawn) [CBK300513],95.8%
20,CCN(CC(=O)NCc1cccnc1)S(=O)(=O)c1ccc2ccccc2c1 [CBK300514],108%
21,Cc1cc(C)c2c(N)c(C(=O)Nc3ccc(C(=O)O)cc3)sc2n1 [CBK300515],100%
